Results on 1 molecule are retold here after patent US11566231B2, “Physiology and pathophysiology of human gut: intestine-on-chip” (EMULATE, INC., priority 2017, dated 2023).

In series [1] the test system is IL-8. The series can be described thus: LPS-induced IL-8 production in Intestine-Chip. Format: cell-based, human. As to conditions: LPS 100 μg/ml; Rifaximin 50 μg/ml; without stretch.
Series [2] has as its system human PXR. The conditions noted are these: human cells; cited from earlier work.

As for `CO[C@H]1/C=C/O[C@@]2(C)Oc3c(C)c(O)c4c(O)c(c5c(nc6cc(C)ccn65)c4c3C2=O)NC(=O)/C(C)=C\C=C\[C@H](C)[C@H](O)[C@@H](C)[C@@H](O)[C@@H](C)[C@H](OC(C)=O)[C@@H]1C` [Rifaximin], the IL-8 result in series [1] was “decrease in IL-8”. Moreover, in series [2], the “expression of PXR-regulated genes, including CYP3A4 and MDR1” value was “enhanced”.
